Data: ChEMBL document CHEMBL1201862, “PubChem BioAssay data set” (2004)
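Following 48 hours of exposure in 96-well plates, responses at five concentrations were used to interpolate endpoints linearly. GI50 is the concentration that inhibits growth by half.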 Activity calls are given as the source filed them. Rule as the data show it: active = GI50 up to about 1.1 µM and inactive = higher.

Columns and labels:
Assay in all cases: growth of human tumour cells (NCI), 48 h
MDA-MB-231 = tested on: MDA-MB-231
SK-MEL-5 = tested on: SK-MEL-5
NCI-H460 = tested on: NCI-H460
DU-145 = tested on: DU-145
HOP-92 = tested on: HOP-92
SF-539 = tested on: SF-539
ACHN = tested on: ACHN
Malme-3M = tested on: Malme-3M
HT-29 = tested on: HT-29
SR = tested on: SR
SK-MEL-28 = tested on: SK-MEL-28
CCRF-CEM = tested on: CCRF-CEM
U-251 = tested on: U-251
Hs-578T = tested on: Hs-578T
NCI-H522 = tested on: NCI-H522
MCF7 = tested on: MCF7
KM12 = tested on: KM12
OVCAR-3 = tested on: OVCAR-3
SF-268 = tested on: SF-268
OVCAR-4 = tested on: OVCAR-4

Measured: GI50

CCOC(=O)[C@H](O)[C@@H](O)C(=O)NCc1ccc(C(=O)c2ccccc2)cc1
inactive: MDA-MB-231 > 100 µM | SK-MEL-5 > 100 µM | NCI-H460 > 100 µM | DU-145 > 100 µM | HOP-92 > 100 µM | SF-539 > 100 µM | ACHN > 100 µM | Malme-3M > 100 µM | HT-29 > 100 µM | SR > 100 µM | SK-MEL-28 > 100 µM | CCRF-CEM > 100 µM | U-251 > 100 µM | Hs-578T > 100 µM | NCI-H522 > 100 µM | MCF7 > 100 µM | KM12 > 100 µM | OVCAR-3 > 100 µM | SF-268 > 100 µM | OVCAR-4 > 100 µM

FC(F)(Sc1ncc[nH]1)c1nc2ccccc2o1
inactive: MDA-MB-231 > 100 µM | SK-MEL-5 > 100 µM | NCI-H460 > 100 µM | DU-145 > 100 µM | HOP-92 > 100 µM | SF-539 > 100 µM | ACHN > 100 µM | Malme-3M > 100 µM | HT-29 > 100 µM | SR > 100 µM | SK-MEL-28 > 100 µM | CCRF-CEM > 100 µM | U-251 > 100 µM | Hs-578T 62.7 µM | NCI-H522 > 100 µM | MCF7 > 100 µM | KM12 > 100 µM | OVCAR-3 > 100 µM | SF-268 > 100 µM | OVCAR-4 > 100 µM

CSC(SC)=C1C(=O)NN=C1C
inactive: MDA-MB-231 > 100 µM | SK-MEL-5 > 100 µM | NCI-H460 > 100 µM | DU-145 > 100 µM | HOP-92 35.1 µM | SF-539 > 100 µM | ACHN > 100 µM | Malme-3M > 100 µM | HT-29 > 100 µM | SR > 100 µM | SK-MEL-28 > 100 µM | CCRF-CEM > 100 µM | U-251 > 100 µM | Hs-578T > 100 µM | NCI-H522 47 µM | MCF7 > 100 µM | KM12 > 100 µM | OVCAR-3 > 100 µM | SF-268 > 100 µM | OVCAR-4 > 100 µM

CC(NP(=O)(c1ccccc1)c1ccccc1)c1ccccc1 (stereo not given)
inactive: MDA-MB-231 > 100 µM | SK-MEL-5 > 100 µM | NCI-H460 > 100 µM | DU-145 > 100 µM | HOP-92 > 100 µM | SF-539 > 100 µM | ACHN > 100 µM | Malme-3M > 100 µM | HT-29 > 100 µM | SR > 100 µM | SK-MEL-28 > 100 µM | CCRF-CEM > 100 µM | U-251 > 100 µM | Hs-578T > 100 µM | NCI-H522 > 100 µM | MCF7 > 100 µM | KM12 > 100 µM | OVCAR-3 > 100 µM | SF-268 > 100 µM | OVCAR-4 > 100 µM
